The text below walks through data of patent US5658880A, “Sialic acid/fucose based medicaments” (Glycomed Incorporated, priority 1994, dated 1997).

One test concerns human neutrophils. Put plainly: Reperfusion injury assay: complement-induced human neutrophil adhesion in rabbit isolated heart. On the set-up: species or system human neutrophils; New Zealand White rabbit heart. Particulars: 4% normal human plasma, 0.1 mg/ml (0.001, 0.01 and 0.1 mg/ml tested), read-out: % Neutrophil Inhibition (neutrophil accumulation). The source says:
Experiments were done to determine the effectiveness of compound 7 in decreasing adhesion of human neutrophils in the rabbit isolated heart. Addition of the human plasma to the rabbit isolated heart results in activation of the complement components found within the plasma, which in turn promotes an increase in the neutrophil accumulation. This model is used to determine the effect of sLe^x analogues on inhibiting complement-induced neutrophil adhesion. Hearts from New Zealand White rabbits were excised, mounted on a modified Langendorff apparatus and perfused with Krebs-Heinseleit buffer. Cardiac functional parameters were monitored upon a Grass Model 79D polygraph machine. 4% normal human plasma (NHP) was added to the recirculating buffer. Ten minutes after the addition of the plasma, 13b (0.1 mg/ml) was added to the perfusate. After 15 minutes of perfusion with the plasma, 51-chromium labelled human neutrophils (1×10^5 /ml) were added to the perfusate and allowed to recirculate for an additional 15 minutes. At the end of this time the hearts were washed with fresh buffer to remove non-specifically bound neutrophils, dried and counted in a well type gamma-counter. A concentration response curve was generated using concentrations of 0.001, 0.01 and 0.1 mg/ml. […] Table 3 lists the results, expressed as the percent inhibition of neutrophil accumulation.

The test system of another test is P-selectin. Put plainly: Flow cytometric assay: inhibition of P-selectin-IgG binding to HL-60 cells. Format: cell-based, human. More on the design: unit of the concentration uncertain. As to the method: The interaction of P-selectin and its cellular ligand was studied using a flow cytometric assay (Erbe, D. V. et al., J. Cell Biol. (1993) 120:1227). HL60 cells (maintained in high glucose DME plus 10% Hyclone FBS) were used in this assay. Before staining with P-selectin-IgG the cells were preincubated in Dulbecco's PBS/1% BSA/0.1% sodium azide/1% normal rabbit serum (staining medium) for 30-60 mins on ice. After this initial incubation, 1 μg of P-selectin-IgG was added to 100 μl aliquots of 10^6 cells and incubated for 30-60 mins on ice. The cells were when washed with staining medium and resuspended in 100 μl of staining medium to which was added 2 μl of a phycoerythrin-conjugated F(ab')^2 goat anti-human IgG (Fc specific). The cells were incubated for 15-30 mins on ice, washed twice with staining medium, and resuspended in 0.5 ml of staining medium before flow cytometric analysis on a FACScan (Becton Dickinson & Co., Mountain View, Calif.). To determine that the staining was an interaction of P-selectin with its ligand, the staining was also done in the presence of 10 mM EGTA. To determine the protease sensitivity and the requirement for sialic acid of this interaction, HL-60 cells in D-PBS and 1% BSA were incubated with either trypsin or Arthrobacter or Clostridium sialidases at 37° C. before resuspending in staining medium. To examine the ability of various carbohydrates to inhibit staining, 50 μg/ml fucoidin (Sigma Immunochemicals, St. Louis, Mo.), 50 μg/ml dextran sulfate (Pharmacia Fine Chemicals, Piscataway, N.J.), 10 mg/ml mannose-1-phosphate (Sigma Immunochemicals), or 10 mg/ml mannose-6-phosphate (Sigma Immunochemicals) was added to cells immediately before the addition of the P-selectin chimera. Each carbohydrate was then present until the cells were washed before the addition of the second stage antibody. A potential complication of this FACS assay arose from the use of selectin-IgG chimeras to stain cells which bear human IgG Fc receptors (FcγR; Fanger, M. W., et al., Immunol. Today (1989) 10:92). Adding rabbit IgG (in the form of normal rabbit serum) to the assay medium blocked this binding in most cases.
In general terms: A flow cytometer gives signals particle by particle.

The inhibition is the percentage by which the read-out fell short of the control. For `CC(=O)NC1C(O)CC(OCCCCCCOC2OC(C)C(O)C(O)C2O)(C(=O)O)OC1C(O)C(O)CO` [Compound 7, 1-O-α-Neu5Ac-(6-O-α-L-Fucopyranosyl)-Hexane], the inhibition at 100 µg/mL with human neutrophils stood at 30%. In addition, the “Inhibition (%) of P-selectin-IgG binding to HL-60 cells” value with P-selectin (10 (unit uncertain)) was found to be 60%; in the test with P-selectin (50 (unit uncertain)), 80%; in the test with P-selectin (100 (unit uncertain)), 80%.
